In data set [1] the test system is SW480. As to the kind of experiment: Inhibition of colony formation in double EGFR/HER2 knockdown human SW480 cells at 0.75 uM incubated for 14 days by crystal violet staining based colony formation assay. The data set is classed as functional, cell-based. The following applies: time 14.0 day.
Data set [2] relates to HT-29. Briefly: Antitumor activity against human HT-29 cells xenografted Balb/c mouse assessed as inhibited tumor growth at 2.5 mg/kg/day, ip administrated for every other day and measured after 6 days. The data set is classed as functional, organism-based. The settings on record: time 6.0 day. A general note: A xenograft is tissue or cells of one species grown in another, often human tumour cells in immunodeficient mice.

In data set [3] the test system is HT-29. Briefly: Inhibition of colony formation in HER2 knockdown human HT-29 cells at 0.75 uM incubated for 14 days by crystal violet staining based colony formation assay. Format: functional, cell-based. The settings on record: time 14.0 day.
Data set [4] in a line: Toxicity in human HT-29 cells xenografted Balb/c mouse assessed as change in liver pathology at 2.5 mg/kg/day, ip administrated for every other day and measured after 28 days. Format: organism-based. The settings on record: in vivo, 672 h, time 28 day.
Data set [5] is described as follows: Toxicity in human HT-29 cells xenografted Balb/c mouse assessed as change in heart pathology at 2.5 mg/kg/day, ip administrated for every other day and measured after 28 days. Format: organism-based. The settings on record: in vivo, 672 h, time 28 day.
Data set [6] has as its target Epidermal growth factor receptor (Homo sapiens) (UniProt P00533). As to the kind of experiment: Inhibition of EGFR in human HT-29 cells assessed as reduction in STAT3 phosphorylation level at 0.5 to 2 uM incubated for 24 hrs by Western blot analysis. Format: cell-based. The settings on record: dose 0.5-2 µM. For orientation: Immunoblotting shows a protein as a band on a membrane.

For data set [7], the system named is SW480. As to the kind of experiment: Inhibition of colony formation in human SW480 cells at 0.75 uM incubated for 14 days by crystal violet staining based colony formation assay. Format: functional, cell-based. The following applies: time 14.0 day.
Data set [8] addresses Epidermal growth factor receptor (Homo sapiens) (UniProt P00533). As to the kind of experiment: Inhibition of EGFR in human HT-29 cells at 2 uM by Western blot analysis. The data set is classed as cell-based. The settings on record: time 3-15 hrs, TDE = time-dependent effect.
Data set [9] shares this target. Briefly: Inhibition of EGFR in human HT-29 cells assessed as reduction in STAT3 phosphorylation level at 2 uM by Western blotting analysis. The settings on record: time 3-15 hrs, TDE = time-dependent effect. The data set is classed as cell-based.
For data set [10] the target is unchanged. As to the kind of experiment: Inhibition of EGFR in human HT-29 cells assessed as reduction in MEK1/2 phosphorylation level at 0.5 to 2 uM incubated for 24 hrs by Western blotting analysis. The following applies: dose 0.5-2 µM. Format: cell-based.
Data set [11] in a line: Toxicity in human HT-29 cells xenografted Balb/c mouse assessed as change in body weight at 2.5 mg/kg/day, ip administrated for every other day and measured after 6 days. The data set is classed as organism-based. The settings on record: in vivo, 144 h, time 6 day.
Data set [12] deals with Receptor tyrosine-protein kinase erbB-2 (Homo sapiens) (UniProt P04626). As to the kind of experiment: Inhibition of HER2 in human HT-29 cells at 2 uM by Western blotting analysis. The data set is classed as cell-based. The following applies: time 3-15 hrs, TDE = time-dependent effect.
Sequence of Receptor tyrosine-protein kinase erbB-2 (Homo sapiens) (P04626 whole entry): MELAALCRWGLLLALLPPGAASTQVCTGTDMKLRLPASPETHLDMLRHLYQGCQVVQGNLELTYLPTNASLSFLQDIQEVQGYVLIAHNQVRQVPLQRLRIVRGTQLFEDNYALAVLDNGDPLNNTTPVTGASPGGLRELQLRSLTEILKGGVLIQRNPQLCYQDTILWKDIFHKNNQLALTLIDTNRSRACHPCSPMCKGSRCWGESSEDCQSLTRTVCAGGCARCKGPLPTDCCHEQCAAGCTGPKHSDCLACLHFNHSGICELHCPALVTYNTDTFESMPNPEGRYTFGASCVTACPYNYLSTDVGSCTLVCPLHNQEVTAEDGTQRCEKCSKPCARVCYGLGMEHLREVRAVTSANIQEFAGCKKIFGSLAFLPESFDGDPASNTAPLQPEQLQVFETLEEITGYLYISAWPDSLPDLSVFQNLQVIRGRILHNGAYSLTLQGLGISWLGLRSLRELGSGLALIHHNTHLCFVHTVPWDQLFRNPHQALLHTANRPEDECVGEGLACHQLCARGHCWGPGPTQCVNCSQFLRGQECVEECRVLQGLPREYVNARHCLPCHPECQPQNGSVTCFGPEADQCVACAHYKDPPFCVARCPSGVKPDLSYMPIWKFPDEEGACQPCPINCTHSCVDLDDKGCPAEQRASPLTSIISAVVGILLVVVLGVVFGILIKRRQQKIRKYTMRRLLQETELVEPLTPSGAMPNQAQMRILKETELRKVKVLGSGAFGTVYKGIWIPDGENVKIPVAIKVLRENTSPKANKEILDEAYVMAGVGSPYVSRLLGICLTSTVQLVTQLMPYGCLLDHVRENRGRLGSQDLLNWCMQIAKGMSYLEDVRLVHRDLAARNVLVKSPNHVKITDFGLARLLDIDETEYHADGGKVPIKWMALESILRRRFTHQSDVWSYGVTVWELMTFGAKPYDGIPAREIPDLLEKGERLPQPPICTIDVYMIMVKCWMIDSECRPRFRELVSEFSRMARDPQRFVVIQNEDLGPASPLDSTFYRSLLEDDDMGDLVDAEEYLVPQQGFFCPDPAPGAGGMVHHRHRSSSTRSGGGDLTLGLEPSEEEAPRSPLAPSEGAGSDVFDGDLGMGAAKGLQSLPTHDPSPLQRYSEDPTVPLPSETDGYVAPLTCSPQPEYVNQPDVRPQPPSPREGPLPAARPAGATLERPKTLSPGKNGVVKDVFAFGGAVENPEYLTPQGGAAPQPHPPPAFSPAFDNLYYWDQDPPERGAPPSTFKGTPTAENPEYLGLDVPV
The target in data set [13] is Epidermal growth factor receptor (Homo sapiens) (UniProt P00533). As to the kind of experiment: Inhibition of EGFR in human HT-29 cells assessed as reduction in MEK1/2 phosphorylation level at 2 uM by Western blotting analysis. The data set is classed as cell-based. The following applies: time 3-15 hrs, TDE = time-dependent effect.
Sequence of Epidermal growth factor receptor (Homo sapiens) (P00533 whole entry): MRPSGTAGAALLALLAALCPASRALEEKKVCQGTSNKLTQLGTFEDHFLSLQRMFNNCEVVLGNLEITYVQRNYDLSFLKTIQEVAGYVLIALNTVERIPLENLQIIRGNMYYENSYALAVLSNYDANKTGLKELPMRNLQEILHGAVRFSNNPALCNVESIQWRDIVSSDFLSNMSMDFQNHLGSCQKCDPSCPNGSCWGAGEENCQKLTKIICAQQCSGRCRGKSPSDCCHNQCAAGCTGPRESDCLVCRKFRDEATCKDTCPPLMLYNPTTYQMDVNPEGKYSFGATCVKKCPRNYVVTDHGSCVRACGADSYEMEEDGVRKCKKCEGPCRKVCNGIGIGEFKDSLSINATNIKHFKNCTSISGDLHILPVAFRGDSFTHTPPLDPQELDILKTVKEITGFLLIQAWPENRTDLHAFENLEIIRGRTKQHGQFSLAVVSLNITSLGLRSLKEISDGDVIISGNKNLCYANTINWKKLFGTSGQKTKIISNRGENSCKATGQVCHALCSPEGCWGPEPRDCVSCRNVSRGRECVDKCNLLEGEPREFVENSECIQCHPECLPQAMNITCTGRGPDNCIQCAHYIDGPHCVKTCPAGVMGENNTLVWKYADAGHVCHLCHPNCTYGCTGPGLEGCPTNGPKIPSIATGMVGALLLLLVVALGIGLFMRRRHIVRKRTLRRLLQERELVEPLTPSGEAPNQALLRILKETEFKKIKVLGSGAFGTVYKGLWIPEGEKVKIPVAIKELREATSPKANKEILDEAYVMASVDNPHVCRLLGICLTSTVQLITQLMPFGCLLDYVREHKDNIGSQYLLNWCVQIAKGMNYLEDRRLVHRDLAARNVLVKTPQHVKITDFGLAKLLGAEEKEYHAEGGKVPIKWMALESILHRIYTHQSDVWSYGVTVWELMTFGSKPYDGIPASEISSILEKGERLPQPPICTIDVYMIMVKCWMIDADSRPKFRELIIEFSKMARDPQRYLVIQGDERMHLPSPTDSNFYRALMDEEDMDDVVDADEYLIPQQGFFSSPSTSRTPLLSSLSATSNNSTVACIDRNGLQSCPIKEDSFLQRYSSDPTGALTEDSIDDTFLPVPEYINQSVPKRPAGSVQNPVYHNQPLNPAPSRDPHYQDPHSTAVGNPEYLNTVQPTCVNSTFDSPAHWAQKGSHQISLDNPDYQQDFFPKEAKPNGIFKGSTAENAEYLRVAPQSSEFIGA
Data set [14] concerns HT-29. As to the kind of experiment: Antitumor activity against human HT-29 cells xenografted Balb/c mouse assessed as reduction in Ki67 expression level at 2.5 mg/kg/day, ip administrated for every other day and measured after 28 days by immunohistochemistry staining method. The data set is classed as functional, organism-based. The settings on record: time 28.0 day.
The target in data set [15] is Epidermal growth factor receptor (Homo sapiens) (UniProt P00533). As to the kind of experiment: Inhibition of EGFR in human HT-29 cells assessed as reduction in Erk1/2 phosphorylation level at 2 uM by Western blotting analysis. The settings on record: time 3-15 hrs, TDE = time-dependent effect. The data set is classed as cell-based.
The nature of data set [16]: Toxicity in human HT-29 cells xenografted Balb/c mouse assessed as change in spleen pathology at 2.5 mg/kg/day, ip administrated for every other day and measured after 28 days. The data set is classed as organism-based. The settings on record: in vivo, 672 h, time 28 day.
The subject of data set [17] is HT-29. As to the kind of experiment: Inhibition of HER2 in human HT-29 cells xenografted in BALB/c nude mouse assessed as HER2 protein level in tumor at 2.5 mg/kg/day, ip administrated for every other day and measured after 28 days by Western blotting analysis. The data set is classed as functional, organism-based. The following applies: time 28.0 day.
For data set [18], the system named is HT-29. Briefly: Inhibition of colony formation in HER2 knockdown human HT-29 cells at 6 uM incubated for 14 days by crystal violet staining based colony formation assay. The following applies: time 14.0 day. The data set is classed as functional, cell-based.
The test system of the next data set is LoVo. As to the kind of experiment: Inhibition of colony formation in human LoVo cells at 6 uM incubated for 14 days by crystal violet staining based colony formation assay. The data set is classed as functional, cell-based. The following applies: time 14.0 day.
Data set [19] deals with Epidermal growth factor receptor (Homo sapiens) (UniProt P00533). Briefly: Inhibition of EGFR in human SW480 cells assessed as reduction in Erk1/2 phosphorylation level at 3.75 to 15 uM incubated for 24 hrs by Western blot analysis. The data set is classed as cell-based. The settings on record: dose 3.75-15 µM.
The test system of the next data set is HCT-116. Briefly: Inhibition of colony formation in human HCT-116 cells at 6 uM incubated for 14 days by crystal violet staining based colony formation assay. Format: functional, cell-based. The following applies: time 14.0 day.
Data set [20] can be described thus: Toxicity in human HT-29 cells xenografted Balb/c mouse assessed as change in spleen pathology at 5 mg/kg/day, ip administrated for every other day and measured after 28 days. The settings on record: in vivo, 672 h, time 28 day. The data set is classed as organism-based.
Data set [21] concerns the target Epidermal growth factor receptor (Homo sapiens) (UniProt P00533). As to the kind of experiment: Inhibition of EGFR in human HT-29 cells assessed as reduction in STAT3 phosphorylation level at 3.75 to 15 uM incubated for 24 hrs by Western blot analysis. The data set is classed as cell-based. The settings on record: dose 3.75-15 µM.
The subject of data set [22] is HT-29. Briefly: Inhibition of EGFR in human HT-29 cells xenografted in BALB/c nude mouse assessed as EGFR protein level in tumor at 5 mg/kg/day, ip administrated for every other day and measured after 28 days by Western blotting analysis. The settings on record: time 28.0 day. The data set is classed as functional, organism-based.
The test system of data set [23] is SW480. As to the kind of experiment: Inhibition of colony formation in human SW480 cells at 6 uM incubated for 14 days by crystal violet staining based colony formation assay. The settings on record: time 14.0 day. Format: functional, cell-based.
Data set [24] in a line: Toxicity in human HT-29 cells xenografted Balb/c mouse assessed as change in liver pathology at 5 mg/kg/day, ip administrated for every other day and measured after 28 days. The data set is classed as organism-based. The settings on record: in vivo, 672 h, time 28 day.
Data set [25] has as its target Epidermal growth factor receptor (Homo sapiens) (UniProt P00533). Briefly: Inhibition of EGFR in human HT-29 cells assessed as reduction in Erk1/2 phosphorylation level at 15 uM by Western blot analysis. The data set is classed as cell-based. The following applies: time 3-15 hrs, TDE = time-dependent effect.
Data set [26] has the same target. Briefly: Inhibition of EGFR in human HT-29 cells assessed as reduction in Erk1/2 phosphorylation level at 3.75 to 15 uM incubated for 24 hrs by Western blotting analysis. The following applies: dose 3.75-15 µM. Format: cell-based.
Data set [27] deals with HT-29. Briefly: Inhibition of colony formation in human HT-29 cells at 6 uM incubated for 14 days by crystal violet staining based colony formation assay. Format: functional, cell-based. The following applies: time 14.0 day.
Data set [28] in a line: Toxicity in human HT-29 cells xenografted Balb/c mouse assessed as change in kidney pathology at 5 mg/kg/day, ip administrated for every other day and measured after 28 days. Format: organism-based. The settings on record: in vivo, 672 h, time 28 day.
Data set [29] addresses Epidermal growth factor receptor (Homo sapiens) (UniProt P00533). Briefly: Inhibition of EGFR in human HT-29 cells assessed as reduction in ratio of p-EGFR/EGFR level at 15 uM measured after 3 to 15 hrs by Western blotting analysis. The data set is classed as cell-based. The settings on record: time 3-15 hrs.
Data set [30] shares this target. Briefly: Inhibition of EGFR in human HT-29 cells assessed as reduction in MEK1/2 phosphorylation level at 15 uM by Western blot analysis. Format: cell-based. The settings on record: time 3-15 hrs, TDE = time-dependent effect.
The test system of data set [31] is HT-29. As to the kind of experiment: Antitumor activity against human HT-29 cells xenografted Balb/c mouse assessed as reduction in tumor cell density at 5 mg/kg/day, ip administrated for every other day and measured after 28 days by Hematoxylin and Eosin staining based method. The following applies: time 28.0 day. Format: functional, organism-based.
Data set [32] in a line: Toxicity in human HT-29 cells xenografted Balb/c mouse assessed as change in body weight at 5 mg/kg/day, ip administrated for every other day and measured after 6 days. The settings on record: in vivo, 144 h, time 6 day. The data set is classed as organism-based.
In data set [33] the target is Epidermal growth factor receptor (Homo sapiens) (UniProt P00533). As to the kind of experiment: Inhibition of EGFR in human SW480 cells assessed as reduction in STAT3 phosphorylation level at 3.75 to 15 uM incubated for 24 hrs by Western blot analysis. The data set is classed as cell-based. The following applies: dose 3.75-15 µM.
Data set [34] relates to HT-29. Briefly: Inhibition of colony formation in EGFR knockdown human HT-29 cells at 6 uM incubated for 14 days by crystal violet staining based colony formation assay. The following applies: time 14.0 day. Format: functional, cell-based.

The source made the active and inactive calls. The rule behind the calls is not given here.

`CC[C@H]1CCC[C@H](O[C@H]2CC[C@H](N(C)CC(O)CN3CCNCC3)[C@@H](C)O2)[C@@H](C)C(=O)C2=C[C@@H]3[C@@H](C=C[C@@H]4C[C@@H](O[C@@H]5O[C@@H](C)[C@H](OC)[C@@H](OC)[C@H]5OC)C[C@@H]34)[C@@H]2CC(=O)O1` (stereo partly specified): the outcome with SW480 [1] and with HT-29 [3] was inactive. The inhibition result (with HT-29 [2]; in data set [6]; in the data set on SW480 [7]; in data set [10]; with HT-29 [17]) was “Active” each time. The Activity result in data set [4], in data set [5], in data set [11] and in data set [16] was “Non-Toxic” in each case. Also, the inhibition entry in data set [8], in data set [9], in [12], in data set [13] and in data set [15] was “Tde” in each case. Also, the result in the data set on HT-29 [14] was Active.
Take `CC[C@H]1CCC[C@H](O[C@H]2CC[C@H](N(C)C)[C@@H](C)O2)[C@@H](C)C(=O)C2=C[C@@H]3[C@@H](C=C[C@@H]4C[C@@H](O[C@@H]5O[C@@H](C)[C@H](OC)[C@@H](OC)[C@H]5OC)C[C@@H]34)[C@@H]2CC(=O)O1` [SPINOSYN A]: the result with HT-29 [18] and with HT-29 [34] was inactive. In addition, the inhibition entry (with LoVo; in [19]; in the data set with HCT-116; in [21]; in the data set with HT-29 [22]; in the data set on SW480 [23]) was “Active” in each case. For the same molecule, the inhibition entry (in [26]; with HT-29 [27]; in [29]; in [33]) was “Active” in each case. In addition, the Activity result in data set [20], in [24], in [28] and in data set [32] was “Non-Toxic” in each case. The inhibition entry in data set [25] and in data set [30] was “Tde” throughout. The outcome in the data set on HT-29 [31] was Active.

Values taken from ChEMBL document CHEMBL5390209, “Spinosyn A and Its Derivative Inhibit Colorectal Cancer Cell Growth via the EGFR Pathway” (J Nat Prod, 2023).
